One may read the IC50 as the midpoint of a concentration-inhibition curve.

For eight compounds, IC50 results are on record in patent publication US12065442B2, “Tropomyosin receptor kinase (TRK) degradation compounds and methods of use” (Cullgen (Shanghai), Inc., priority 2018, dated 2024).

The experiment concerns KM12 cells. Briefly: Cell viability assay (CellTiter-Glo) in KM12 cells. It counts as cell-based. To be noted: Homo sapiens, 72 h; Table 4; KM12 cell viability, CellTiter-Glo, 3 days; read-out: IC50. (In general: ATP-based viability assays read luminescence as a measure of living cells.)
Take `O=C1CCC(N2C[C@H](c3ccc(C#CCN4CCN(c5cccc(-c6cnc7ccc(N8CCC[C@@H]8c8cccc(F)c8)nn67)n5)CC4)cc3)OC2=O)C(=O)N1` (stereo partly drawn) [TR-224, 3-((S)-5-(4-(3-(4-(6-(6-((R)-2-(3-Fluorophenyl)pyrrolidin-1-yl)imidazo[1,2-b]pyridazin-3-yl)pyridin-2-yl)piperazin-1-yl)prop-1-yn-1-yl)phenyl)-2-oxooxazolidin-3-yl)piperidine-2,6-dione]: the IC50 is 9.9 nM.
As for `O=C1CCC(N2C(=O)c3ccc(N4CCC(CN5CCN(c6cccc(-c7cnc8ccc(N9CCC[C@@H]9c9cccc(F)c9)nn78)n6)CC5)C4)cc3C2=O)C(=O)N1` (stereo partly drawn) [TR-225, 2-(2,6-Dioxopiperidin-3-yl)-5-(3-((4-(6-(6-((R)-2-(3-fluorophenyl)pyrrolidin-1-yl)imidazo[1,2-b]pyridazin-3-yl)pyridin-2-yl)piperazin-1-yl)methyl)pyrrolidin-1-yl)isoindoline-1,3-dione], the figure is 8.8 nM; as for `O=C1CCC(N2C(=O)c3ccc(N4CCC(CN5CCN(c6cccc(-c7cnc8ccc(N9CCC[C@@H]9c9cccc(F)c9)nn78)n6)CC5)CC4)cc3C2=O)C(=O)N1` (stereo partly drawn) [TR-226, 2-(2,6-Dioxopiperidin-3-yl)-5-(4-((4-(6-(6-((R)-2-(3-fluorophenyl)pyrrolidin-1-yl)imidazo[1,2-b]pyridazin-3-yl)pyridin-2-yl)piperazin-1-yl)methyl)piperidin-1-yl)isoindoline-1,3-dione], 13.8 nM.
As to `O=C1CCC(n2c(=O)n(CCN3CCN(c4cccc(-c5cnc6ccc(N7CCC[C@@H]7c7cccc(F)c7)nn56)n4)CC3)c3ccccc32)C(=O)N1` (stereo partly drawn) [TR-227, 3-(3-(2-(4-(6-(6-((R)-2-(3-Fluorophenyl)pyrrolidin-1-yl)imidazo[1,2-b]pyridazin-3-yl)pyridin-2-yl)piperazin-1-yl)ethyl)-2-oxo-2,3-dihydro-1H-benzo[d]imidazol-1-yl)piperidine-2,6-dione], the IC50 came to 23.6 nM.
Under `O=C1CCC(n2c(=O)n(CCCN3CCN(c4cccc(-c5cnc6ccc(N7CCC[C@@H]7c7cccc(F)c7)nn56)n4)CC3)c3ccccc32)C(=O)N1` (stereo partly drawn) [TR-228, 3-(3-(3-(4-(6-(6-((R)-2-(3-Fluorophenyl)pyrrolidin-1-yl)imidazo[1,2-b]pyridazin-3-yl)pyridin-2-yl)piperazin-1-yl)propyl)-2-oxo-2,3-dihydro-1H-benzo[d]imidazol-1-yl)piperidine-2,6-dione] stands 56.3 nM.
Under `O=C1CCC(N2C[C@H](c3ccc(CN4CCN(c5cccc(-c6cnc7ccc(N8CCC[C@@H]8c8cccc(F)c8)nn67)n5)CC4)cc3)OC2=O)C(=O)N1` (stereo partly drawn) [TR-229, 3-((S)-5-(4-((4-(6-(6-((R)-2-(3-Fluorophenyl)pyrrolidin-1-yl)imidazo[1,2-b]pyridazin-3-yl)pyridin-2-yl)piperazin-1-yl)methyl)phenyl)-2-oxooxazolidin-3-yl)piperidine-2,6-dione] stands 50.8 nM.
`O=C1CCC(N2C(=O)c3ccc(N4CC(CN5CCC(N6CCC=C(c7cnc8ccc(N9CCC[C@@H]9c9cccc(F)c9)nn78)C6)CC5)C4)cc3C2=O)C(=O)N1` (stereo partly drawn) [TR-230, 2-(2,6-Dioxopiperidin-3-yl)-5-(3-((4-(5-(6-((R)-2-(3-fluorophenyl)pyrrolidin-1-yl)imidazo[1,2-b]pyridazin-3-yl)-3,6-dihydropyridin-1(2H)-yl)piperidin-1-yl)methyl)azetidin-1-yl)isoindoline-1,3-dione]: the IC50 is over 500 nM.
With `O=C1CCC(N2C(=O)c3ccc(N4CC(CN5CCN(c6ccc(C(=O)Nc7n[nH]c8ccc(Cc9cc(F)cc(F)c9)cc78)c(NC7CCOCC7)c6)CC5)C4)cc3C2=O)C(=O)N1` (centres unmarked) [TR-231, N-(5-(3,5-Difluorobenzyl)-1H-indazol-3-yl)-4-(4-((1-(2-(2,6-dioxopiperidin-3-yl)-1,3-dioxoisoindolin-5-yl)azetidin-3-yl)methyl)piperazin-1-yl)-2-((tetrahydro-2H-pyran-4-yl)amino)benzamide], the IC50 is 3 nM.
